Literature values, collected in patent US20120211706A1, “POLYDENTATE LIGAND METAL COMPLEX” (SUMITOMO CHEMICAL COMPANY, LIMITED, priority 2009, published 2012).
Where a name gives a salt, the structure may show the parent alone.

Conditions: 1N aqueous sulfuric acid solution

emission quantum yield of standard sample: 55%
Compound: C=C[C@H]1C[N@@]2CC[C@H]1C[C@H]2[C@H](O)c1ccnc2ccc(OC)cc12 [quinine sulfate]
